These results are taken from patent US3954777A, “Aminopropionyl derivatives of 2,3-diphenyl cyclopropylamine” (Zambon S.p.A., priority 1970, dated 1976).

Data set [1] deals with crisis produced with electroshock. As to the kind of experiment: Electroshock (M.E.S.), protection from extensor phase of hind paws. The data set is classed as in vivo, male albine Swiss mice. The note with it: Mus musculus. The method, then:
(§1) The preferred method is that according to Schotten-Baumann. […] Preferably an excess of the same amine is used both as acid binding substance and as solvent. If the amine is a low-boiling one the reaction is carried out in a sealed tube while if the amine has a high-boiling point is preferred to operate at the boiling temperature of the reaction mixture. […] Materials and methods. The animals used in the tests, unless otherwise indicated, were male albine Swiss mice weighing 19-23 g; each animal has been used only once.
(§2) Electroshock (M.E.S.). The method followed in performing the electroshock is C. H. Cashin and J. Jackson's method (J.Pharm.Pharmacol.,1962, 14 (supl.) 445) modified as follows: the electrodes are placed in the outer ear which is, before the shock, filled with a physiological solution. The applied voltage is of 92 volts with a current of 50 Hz stabilized with Selonix H.T. 4420 stabilizer; duration of shock 0.2 seconds. […] (E. A. Swinyard, W. C. Brown; L. S. Goodman, J. Pharmacol., 1952, 106, 319) Schock by cardiazol (M.M.S.). 38 mg/kg of cardiazol, under the form of a 0.38% aqueous solution, is quickly injected in the dorsal vein of the mouse tail (L. S. Goodman, M. Singh Grewal, W. C. Brown, E. A. Swinyard, J. Pharmacol. 1953, 108, 168). The animals are considered as protected when the extensor phase of the hind paws is eliminated during the tonic crisis. The so obtained data have been elaborated by calculating the ED50 and the LD50 according to Lichtfield-Wilcoxon's method (J. Pharmacol. 1949, 96, 99).

The subject of data set [2] is crisis produced with cardiazol. The experiment in a line: Schock by cardiazol (M.M.S.), protection from extensor phase of hind paws. Format: in vivo, male albine Swiss mice. As to conditions: Mus musculus. Here is the method: as §1, §2
The next data set can be described thus: in vivo. As to conditions: mouse, ip. Here is the method: as §1, §2
The mark [3] stands for this setting: sc, 0.5 h, new compounds (Table 2), under skin, 30 minutes ante, as hydrochlorides, read-out: ED50 M.E.S.
Where [4] appears, read: sc, 0.5 h, new compounds (Table 2), under skin, 30 minutes ante, as hydrochlorides, cardiazol 38 mg/kg i.v., read-out: ED50 M.M.S.
Setting [5] is: sc, 0.5 h, read-out: M.M.S. ED50.
Setting [6] is: sc, 0.5 h, reference compounds (Table 1), under skin, 30 minutes ante, cardiazol 38 mg/kg i.v., read-out: M.M.S. ED50.
[7] abbreviates: sc, 0.5 h, reference compounds (Table 1), under skin, 30 minutes ante, read-out: M.E.S.-ED50.

Each structure is given as a SMILES string. Counter-ions that a name gives are not always drawn. Like-named read-outs stand apart in the source and are kept apart here.

For `O=C(CCN1CCCC1)NC1[C@H](c2ccccc2)[C@H]1c1ccccc1` (relative stereo) [cis-trans (line b76)], the ED50 in data set [1] (setting [3]) stood at 24 mg/kg; in data set [2] (setting [4]), 20 mg/kg.

For `O=C(CCN1CCCCC1)NC1[C@H](c2ccccc2)[C@H]1c1ccccc1` (relative stereo) [cis-trans (line b79)], the ED50 in data set [1] (setting [3]) stood at 16 mg/kg; in data set [2] (setting [4]), 15 mg/kg.

For the compound `CN1CCN(CCC(=O)NC2[C@H](c3ccccc3)[C@H]2c2ccccc2)CC1` (relative stereo) [cis-trans (line b82)], the ED50 in data set [1] (setting [3]) is 275 mg/kg.

Consider `CCN(CC)CCC(=O)NC1[C@H](c2ccccc2)[C@H]1c1ccccc1` (relative stereo) [cis-trans, R1 = C2 H5, R2 = C2 H5, N-(beta-diethylamino)propionyl-2,3 -cis,trans-diphenylcyclopropylamine], for which the ED50 in data set [1] (setting [3]) turned out to be 33.5 mg/kg; in data set [2] (setting [4]) it was 27 mg/kg. Also, the LD50 at 72 h in “in vivo” was found to be 79 mg/kg.

Regarding `CN(CCC(=O)NC1[C@H](c2ccccc2)[C@H]1c1ccccc1)Cc1ccccc1` (relative stereo) [cis-trans, R1 = CH3, R2 = CH2 --C6 H5, N-[beta-(N'-benzyl)methylamino]propionyl-2,3-cis,trans-diphenylcyclopropylamine hydrochloride], the values for the ED50 in data set [1] (setting [3]) and in data set [2] (setting [4]) were 91 mg/kg and 98 mg/kg, respectively.

For `CN(C)CCC(=O)NC1[C@H](c2ccccc2)[C@H]1c1ccccc1` (relative stereo) [cis-trans, R1 = CH3, R2 = CH3, N-(beta-dimethylamino)propionyl-2,3 -cis,trans-diphenylcyclopropylamine], the figures for the ED50 in data set [1] (setting [3]) and in data set [2] (setting [4]) were 21.8 mg/kg and 16.5 mg/kg, respectively. Further, the LD50 at 72 h in the data set “in vivo” was 88 mg/kg.

As to `CCNCCC(=O)NC1[C@H](c2ccccc2)[C@H]1c1ccccc1` (relative stereo) [cis-trans, R1 = H, R2 = C2 H5, N-(beta-ethylamino)propionyl- 2,3 -cis,trans-diphenylcyclopropylamine hydrochloride], the ED50 in data set [1] (setting [3]) and in data set [2] (setting [4]) was over 90 mg/kg throughout. In addition, the LD50 at 72 h in “in vivo” was determined as 89.5 mg/kg.

As for `CNCCC(=O)NC1[C@H](c2ccccc2)[C@H]1c1ccccc1` (relative stereo) [cis-trans, R1 = H, R2 = CH3, N-(beta-methylamino)-propionyl-2,3 -cis,trans-diphenyl cyclopropylamine hydrochloride], the ED50 in data set [1] (setting [3]) and in data set [2] (setting [4]) was over 120 mg/kg throughout. In the data set “in vivo”, this compound came in with an LD50 at 72 h of 120 mg/kg.

On to `CCC1(c2ccccc2)C(=O)NC(=O)NC1=O` [Phenobarbital sodium salt, reference compound], for which the ED50 is 35 mg/kg in data set [1] (sc, 0.5 h, read-out: M.E.S.-ED50) and 4.5 mg/kg in data set [2] (setting [5]). This compound registered an LD50 at 72 h in “in vivo” (in vivo) of 182 mg/kg.

Turning to `CN(C)C(=O)Nc1ccccc1` [Phenurone, 1,1-dimethyl-3-phenyl-urea, reference compound], the ED50 is 115 mg/kg in data set [1] (po, 1 h, read-out: M.E.S.-ED50) and 50 mg/kg in data set [2] (po, 1 h, read-out: M.M.S. ED50).

On to `CN1C(=O)OC(C)(C)C1=O` [Trimethadione, reference compound], for which the ED50 in data set [2] (setting [5]) was found to be 175 mg/kg.

For the compound `CCC1(C)CC(=O)NC1=O` (centres unmarked) [ethosuximide, reference compound], in data set [2] (setting [6]), the ED50 stood at 50 mg/kg.

In the case of `Cc1ccccc1OCC(O)CO` (centres unmarked) [mephenesin, reference compound], the median effective dose (ED50) turned out to be 245 mg/kg in data set [1] (setting [7]) and 180 mg/kg in data set [2] (setting [6]).

`O=C1NC(=O)C(c2ccccc2)(c2ccccc2)N1` [phenitoine sodium salt, reference compound]: the 50% effective dose (ED50) amounted to 15 mg/kg in data set [1] (setting [7]) and 7.1 mg/kg in data set [2] (setting [6]). Further, the 50% lethal dose (LD50) at 72 h in “in vivo” (in vivo) amounted to 120 mg/kg.

Turning to `CCC1(c2ccccc2)C(=O)NCNC1=O` [primidone, reference compound], in data set [2] (po, reference compound (Table 1), per os, 6 hours ante, cardiazol 38 mg/kg i.v., read-out: M.M.S. ED50), the ED50 was found to be 5.2 mg/kg.
